19 compounds from patent publication US9957268B2, “1H-pyrrolo[2,3,c]pyridin-7(6H)-ones and pyrazolo[3,4-c]pyridin-7(6H)-ones as inhibitors of BET proteins” (Incyte Corporation, priority 2014, dated 2018) can be followed below.

Test [1] concerns the target BRD4-BD1 (Homo sapiens (Human), UniProt O60885). As to the kind of experiment: BRD4 AlphaScreen assay (BRD4-BD1). The format is binding. The note with it: biotin-labeled tetra-acetylated histone H4 peptide. The procedure: (§1) BRD4-BD1 and BRD4-BD2 assays were conducted in white 384-well polystyrene plate in a final volume of 40 μL for BD1 and 60 μL for BD2. Inhibitors were first serially diluted in DMSO and added to the plate wells before the addition of other reaction components. The final concentration of DMSO in the assay was 1.25% (BD1) and 0.83% (BD2). The assays were carried out at room temperature in the assay buffer (50 mM Tris-HCl, pH 7.5, 0.01% Tween-20, 0.01% BSA, 5 mM DTT), containing 50 nM Biotin-labeled tetra-acetylated histone H4 peptide (H4Ac4) and BRD4-BD1 or BRD4-BD2 protein at concentration less than 1 nM. The incubation for 75 min. was followed by the addition of 20 μL of assay buffer supplemented with Streptavidin donor beads (PerkinElmer 6760002) and GSH Acceptor beads (PerkinElmer-AL109C) at final concentration 2-4 μg/mL under reduced light. After plate sealing, the plate was incubated in the dark at room temperature for 75 min. before reading on a PHERAstar FS plate reader (BMG Labtech). IC50 determination was performed by fitting the curve of percent control activity versus the log of the inhibitor concentration using the GraphPad Prism 5.0 software.
On the technique in general: Alpha assays give light when donor and acceptor beads are brought close together.

Test [2] has as its target BRD4-BD2 (Homo sapiens (Human), UniProt O60885). Put plainly: BRD4 AlphaScreen assay (BRD4-BD2). It counts as binding. The conditions noted are these: biotin-labeled tetra-acetylated histone H4 peptide. The procedure:
as §1

What is called IC50 is the point on the concentration scale where inhibition reaches its midpoint. As to `CC(C)C1Oc2c(cc(S(C)(=O)=O)cc2-c2cn(C)c(=O)c3[nH]ccc23)NC1=O` (centres unmarked) [Example 44, 2-isopropyl-8-(6-methyl-7-oxo-6,7-dihydro-1H-pyrrolo[2,3-c]pyridin-4-yl)-6-(methylsulfonyl)-2H-1,4-benzoxazin-3(4H)-one], the 50% inhibitory concentration (IC50) in test [1] and in test [2] was at most 100 nM each time.

In the case of `COc1cc2c(c(-c3cn(C)c(=O)c4[nH]ccc34)c1)OC(C(C)C)C(=O)N2` (single isomer, unassigned) [Example 9A, 2-isopropyl-6-methoxy-8-(6-methyl-7-oxo-6,7-dihydro-1H-pyrrolo[2,3-c]pyridin-4-yl)-2H-1,4-benzoxazin-3(4H)-one], the IC50 in test [1] and in test [2] was at most 100 nM throughout. `CC(C)C1Oc2c(-c3cn(C)c(=O)c4[nH]ccc34)cc(S(C)(=O)=O)cc2N(C)C1=O` (single isomer, unassigned) [Example 47B, 2-isopropyl-4-methyl-8-(6-methyl-7-oxo-6,7-dihydro-1H-pyrrolo[2,3-c]pyridin-4-yl)-6-(methylsulfonyl)-2H-1,4-benzoxazin-3(4H)-one]: the IC50 in test [1] and in test [2] was at most 100 nM throughout. As to `COc1cc2c(c(-c3cn(C)c(=O)c4[nH]ccc34)c1)OC(C(C)C)C(=O)N2` (centres unmarked) [Example 9, 2-isopropyl-6-methoxy-8-(6-methyl-7-oxo-6,7-dihydro-1H-pyrrolo[2,3-c]pyridin-4-yl)-2H-1,4-benzoxazin-3(4H)-one], the 50% inhibitory concentration (IC50) in test [1] was at most 100 nM. Consider `COc1cc2c(c(-c3cn(C)c(=O)c4[nH]ccc34)c1)OC(C1CC1)C(=O)N2` (centres unmarked) [Example 23, 2-cyclopropyl-6-methoxy-8-(6-methyl-7-oxo-6,7-dihydro-1H-pyrrolo[2,3-c]pyridin-4-yl)-2H-1,4-benzoxazin-3(4H)-one], for which the IC50 in test [1] and in test [2] was at most 100 nM in each case. Turning to `CC(O)c1cc2c(c(-c3cn(C)c(=O)c4[nH]ccc34)c1)OC(C)(C)C(=O)N2` (centres unmarked) [Example 81, 6-(1-hydroxyethyl)-2,2-dimethyl-8-(6-methyl-7-oxo-6,7-dihydro-1H-pyrrolo[2,3-c]pyridin-4-yl)-2H-1,4-benzoxazin-3(4H)-one], the 50% inhibitory concentration (IC50) in test [1] and in test [2] was at most 100 nM in each case. For the compound `CNC(=O)CN1C(=O)C(C(C)C)Oc2c(-c3cn(C)c(=O)c4[nH]ccc34)cc(OC)cc21` (centres unmarked) [Example 12, 2-[2-isopropyl-6-methoxy-8-(6-methyl-7-oxo-6,7-dihydro-1H-pyrrolo[2,3-c]pyridin-4-yl)-3-oxo-2,3-dihydro-4H-1,4-benzoxazin-4-yl]-N-methylacetamide], the results for the 50% inhibitory concentration (IC50) in test [1] and in test [2] were 100 to 1000 nM and at most 100 nM, respectively.

As to `COc1cc2c(c(-c3cn(C)c(=O)c4[nH]ccc34)c1)OC(C1CCCC1)C(=O)N2` (centres unmarked) [Example 35, 2-cyclopentyl-6-methoxy-8-(6-methyl-7-oxo-6,7-dihydro-1H-pyrrolo[2,3-c]pyridin-4-yl)-2H-1,4-benzoxazin-3(4H)-one], the IC50 in test [1] was at most 100 nM. For `Cn1cc(-c2cc(S(C)(=O)=O)cc3c2OC(C)(C)C(=O)N3)c2cc[nH]c2c1=O` [Example 45, 2,2-dimethyl-8-(6-methyl-7-oxo-6,7-dihydro-1H-pyrrolo[2,3-c]pyridin-4-yl)-6-(methylsulfonyl)-2H-1,4-benzoxazin-3(4H)-one], the 50% inhibitory concentration (IC50) in test [1] and in test [2] was at most 100 nM each time. `Cn1cc(-c2cc(S(C)(=O)=O)cc3c2OC2(CC2)C(=O)N3)c2cc[nH]c2c1=O` [Example 57, 8-(6-methyl-7-oxo-6,7-dihydro-1H-pyrrolo[2,3-c]pyridin-4-yl)-6-(methylsulfonyl)spiro[1,4-benzoxazine-2,1′-cyclopropan]-3(4H)-one]: the IC50 in test [1] and in test [2] was at most 100 nM each time. Consider `COc1cc2c(c(-c3cn(C)c(=O)c4[nH]ccc34)c1)OC(C1CCCC1)C(=O)N2` (single isomer, unassigned) [Example 35A, 2-Cyclopentyl-6-methoxy-8-(6-methyl-7-oxo-6,7-dihydro-1H-pyrrolo[2,3-c]pyridin-4-yl)-2H-1,4-benzoxazin-3(4H)-one], for which the IC50 in test [1] and in test [2] was at most 100 nM each time. As to `CCS(=O)(=O)c1cc(-c2cn(C)c(=O)c3[nH]ccc23)c2c(c1)N(C)C(=O)C(C)(C)O2` [Example 76, 6-(ethylsulfonyl)-2,2,4-trimethyl-8-(6-methyl-7-oxo-6,7-dihydro-1H-pyrrolo[2,3-c]pyridin-4-yl)-2H-1,4-benzoxazin-3(4H)-one], the 50% inhibitory concentration (IC50) in test [1] and in test [2] was at most 100 nM in each case.

Consider `COc1cc2c(c(-c3cn(C)c(=O)c4[nH]ccc34)c1)OC(c1ccccc1)C(=O)N2` (single isomer, unassigned) [Example 24A, 6-methoxy-8-(6-methyl-7-oxo-6,7-dihydro-1H-pyrrolo[2,3-c]pyridin-4-yl)-2-phenyl-2H-1,4-benzoxazin-3(4H)-one], for which the half-maximal inhibitory concentration (IC50) in test [1] and in test [2] was at most 100 nM in each case.

On to `CC(C)C1Oc2c(-c3cn(C)c(=O)c4[nH]ccc34)cc(S(=O)(=O)C(C)C)cc2N(C)C1=O` (centres unmarked) [Example 56, 2-isopropyl-6-(isopropylsulfonyl)-4-methyl-8-(6-methyl-7-oxo-6,7-dihydro-1H-pyrrolo[2,3-c]pyridin-4-yl)-2H-1,4-benzoxazin-3(4H)-one], for which the half-maximal inhibitory concentration (IC50) in test [1] and in test [2] was at most 100 nM throughout. `CC(O)c1cc(-c2cn(C)c(=O)c3[nH]ccc23)c2c(c1)N(C)C(=O)C(C)(C)O2` (centres unmarked) [Example 83, 6-(1-hydroxyethyl)-2,2,4-trimethyl-8-(6-methyl-7-oxo-6,7-dihydro-1H-pyrrolo[2,3-c]pyridin-4-yl)-2H-1,4-benzoxazin-3(4H)-one]: the IC50 in test [1] and in test [2] was at most 100 nM each time. Take `COc1cc2c(c(-c3cn(C)c(=O)c4[nH]ccc34)c1)OC(C(C)C)C(=O)N2` (single isomer, unassigned) [Example 9B, 2-isopropyl-6-methoxy-8-(6-methyl-7-oxo-6,7-dihydro-1H-pyrrolo[2,3-c]pyridin-4-yl)-2H-1,4-benzoxazin-3(4H)-one]: the concentration for half-maximal inhibition (IC50) in test [1] and in test [2] was at most 100 nM throughout. Take `Cn1cc(-c2cc(S(C)(=O)=O)cc3c2OC2(CC2)C(=O)N3)c2cn[nH]c2c1=O` [Example 65, 8-(6-methyl-7-oxo-6,7-dihydro-1H-pyrazolo[3,4-c]pyridin-4-yl)-6-(methylsulfonyl)spiro[1,4-benzoxazine-2,1′-cyclopropan]-3(4H)-one]: the IC50 in test [1] and in test [2] was at most 100 nM throughout. In the case of `CC(C)S(=O)(=O)c1cc2c(c(-c3cn(C)c(=O)c4[nH]ccc34)c1)OC(C)(C)C(=O)N2` [Example 79, 6-(isopropylsulfonyl)-2,2-dimethyl-8-(6-methyl-7-oxo-6,7-dihydro-1H-pyrrolo[2,3-c]pyridin-4-yl)-2H-1,4-benzoxazin-3(4H)-one], the IC50 in test [1] and in test [2] was at most 100 nM throughout. As to `COc1cc2c(c(-c3cn(C)c(=O)c4[nH]ncc34)c1)OC(C1CCCC1)C(=O)N2` (single isomer, unassigned) [Example 42B, 2-cyclopentyl-6-methoxy-8-(6-methyl-7-oxo-6,7-dihydro-1H-pyrazolo[3,4-c]pyridin-4-yl)-2H-1,4-benzoxazin-3(4H)-one], the IC50 in test [2] is at most 100 nM.
